Results from ChEMBL document CHEMBL3272133, “1-[4-(4-Chlorophenyl)-2-(2,6-dichlorophenylthio)-n-butyl]-1H-imidazole nitrate, a new potent antifungal agent” (J Med Chem, 1978).
Calls of active or inactive are those of the source. The rule behind the calls is not given here.

Experiments:
[1] = tested on: Trichophyton mentagrophytes; assay: Antifungal activity against Trichophyton mentagrophytes infected in guinea pig assessed as noninfected animals at 0.5% formulation in steryl alcohol, cetyl alcohol, Span 60, Tween 60, propylene glycol, mineral oil, and water administered qd for 5 days measured on day 7; assay type: functional
Salmonella typhimurium [2] = assay: Mutagenic activity in Salmonella typhimurium TA-1538 at 0.1 to 100 ug/plate by Ames assay in presence of rat liver microsomal enzyme preparation; assay type: toxicity, organism-based; conditions: salmonella enterica subsp. enterica serovar typhimurium, microsomes
Candida albicans [3] = assay: Antifungal activity against Candida albicans infected in mouse assessed as noninfected animals at 0.25 to 4% formulation in neat PEG 400 solution administered vaginally bid for 4 days measured on day 21; assay type: functional, organism-based
Candida albicans [4] = assay: Antifungal activity against Candida albicans infected in mouse assessed as noninfected animals at 0.5% formulation in neat PEG 400 solution administered vaginally bid for 4 days measured on day 7 relative to placebo; assay type: functional
Candida albicans [5] = assay: Antifungal activity against mixed infection of Candida albicans infected in mouse assessed as noninfected animals at 0.2% formulation administered vaginally bid for 4 days measured on day 7 relative to placebo; assay type: functional
Candida albicans [6] = assay: Antifungal activity against mixed infection of Candida albicans infected in mouse assessed as noninfected animals at 1% formulation administered vaginally bid for 4 days measured 6 hrs post last dose relative to placebo; assay type: functional
Salmonella typhimurium [7] = assay: Toxicity in Salmonella typhimurium TA-1537 at 500 ug/plate; assay type: organism-based; conditions: salmonella enterica subsp. enterica serovar typhimurium
Cryptococcus neoformans = assay: Antifungal activity against Cryptococcus neoformans assessed as growth inhibition by broth dilution method; assay type: functional
Salmonella typhimurium [8] = assay: Toxicity in Salmonella typhimurium TA-1535 at 500 ug/plate; assay type: organism-based; conditions: salmonella enterica subsp. enterica serovar typhimurium
Salmonella typhimurium [9] = assay: Mutagenic activity in Salmonella typhimurium TA-98 at 0.1 to 100 ug/plate by Ames assay; assay type: toxicity, organism-based; conditions: salmonella enterica subsp. enterica serovar typhimurium
Candida albicans [10] = assay: Antifungal activity against mixed infection of Candida albicans infected in mouse assessed as noninfected animals at 0.5% formulation administered vaginally bid for 4 days measured on day 7 relative to placebo; assay type: functional
Candida albicans [11] = assay: Antifungal activity against Candida albicans infected in mouse assessed as noninfected animals at 1% formulation in neat PEG 400 solution administered vaginally bid for 4 days measured on day 7 relative to placebo; assay type: functional
Candida albicans [12] = assay: Antifungal activity against mixed infection of Candida albicans infected in mouse assessed as noninfected animals at 0.5% formulation administered vaginally bid for 4 days measured 6 hrs post last dose relative to placebo; assay type: functional
Salmonella typhimurium [13] = assay: Mutagenic activity in Salmonella typhimurium TA-98 at 0.1 to 100 ug/plate by Ames assay in presence of rat liver microsomal enzyme preparation; assay type: toxicity, organism-based; conditions: salmonella enterica subsp. enterica serovar typhimurium, microsomes
[14] = tested on: Trichophyton mentagrophytes; assay: Antifungal activity against Trichophyton mentagrophytes assessed as growth inhibition by agar dilution method; assay type: functional
Salmonella typhimurium [15] = assay: Mutagenic activity in Salmonella typhimurium TA-1537 at 0.1 to 100 ug/plate by Ames assay in presence of rat liver microsomal enzyme preparation; assay type: toxicity, organism-based; conditions: salmonella enterica subsp. enterica serovar typhimurium, microsomes
Candida albicans [16] = assay: Antifungal activity against mixed infection of Candida albicans infected in mouse assessed as noninfected animals at 0.2% formulation administered vaginally bid for 4 days measured 6 hrs post last dose relative to placebo; assay type: functional
Saccharomyces cerevisiae [17] = assay: Toxicity in Saccharomyces cerevisiae D4 at 500 ug/plate; assay type: organism-based; conditions: in vivo
Salmonella typhimurium [18] = assay: Mutagenic activity in Salmonella typhimurium TA-1535 at 0.1 to 100 ug/plate by Ames assay in presence of rat liver microsomal enzyme preparation; assay type: toxicity, organism-based; conditions: salmonella enterica subsp. enterica serovar typhimurium, microsomes
[19] = Acute toxicity in po dosed mouse; assay type: organism-based; conditions: in vivo
Candida albicans [20] = assay: Antifungal activity against Candida albicans infected in mouse assessed as noninfected animals at 2% formulation in neat PEG 400 solution administered vaginally bid for 4 days measured on day 7 relative to placebo; assay type: functional
Streptococcus pyogenes = assay: Antibacterial activity against Streptococcus pyogenes No. 8668 assessed as growth inhibition by broth microdilution method; assay type: functional
Candida albicans [21] = assay: Antifungal activity against Candida albicans infected in mouse assessed as noninfected animals at 0.5% formulation in neat PEG 400 solution administered vaginally bid for 4 days measured 6 hrs post last dose relative to placebo; assay type: functional
Staphylococcus aureus [22] = assay: Antibacterial activity against Staphylococcus aureus No. 14154 assessed as growth inhibition by broth microdilution method; assay type: functional
Candida albicans [23] = assay: Antifungal activity against Candida albicans infected in mouse assessed as noninfected animals at 0.25% formulation in neat PEG 400 solution administered vaginally bid for 4 days measured on day 7 relative to placebo; assay type: functional
Trichophyton rubrum = assay: Antifungal activity against Trichophyton rubrum assessed as growth inhibition by agar dilution method; assay type: functional
Salmonella typhimurium [24] = assay: Toxicity in Salmonella typhimurium TA-100 at 500 ug/plate; assay type: organism-based; conditions: salmonella enterica subsp. enterica serovar typhimurium
Candida albicans [25] = assay: Antifungal activity against Candida albicans infected in mouse assessed as noninfected animals at 0.25% formulation in neat PEG 400 solution administered vaginally bid for 4 days measured 6 hrs post last dose relative to placebo; assay type: functional
Candida albicans [26] = assay: Antifungal activity against Candida albicans infected in mouse assessed as noninfected animals at 2% formulation in neat PEG 400 solution administered vaginally bid for 4 days measured 6 hrs post last dose relative to placebo; assay type: functional
Salmonella typhimurium [27] = assay: Toxicity in Salmonella typhimurium TA-98 at 500 ug/plate; assay type: organism-based; conditions: salmonella enterica subsp. enterica serovar typhimurium
Candida albicans [28] = assay: Antifungal activity against Candida albicans ATCC 10231 assessed as growth inhibition by broth dilution method; assay type: functional
Candida albicans [29] = assay: Antifungal activity against mixed infection of Candida albicans infected in mouse assessed as noninfected animals at 0.1% formulation administered vaginally bid for 4 days measured on day 7 relative to placebo; assay type: functional
Candida albicans [30] = assay: Antifungal activity against mixed infection of Candida albicans infected in mouse assessed as noninfected animals at 0.1% formulation administered vaginally bid for 4 days measured 6 hrs post last dose relative to placebo; assay type: functional
Salmonella typhimurium [31] = assay: Mutagenic activity in Salmonella typhimurium TA-1538 at 0.1 to 100 ug/plate by Ames assay; assay type: toxicity, organism-based; conditions: salmonella enterica subsp. enterica serovar typhimurium
Candida albicans [32] = assay: Antifungal activity against mixed infection of Candida albicans infected in mouse assessed as noninfected animals at 1% formulation administered vaginally bid for 4 days measured on day 7 relative to placebo; assay type: functional
[33] = tested on: Trichophyton mentagrophytes; assay: Antifungal activity against Trichophyton mentagrophytes infected in guinea pig assessed as noninfected animals at 0.5% formulation in steryl alcohol, cetyl alcohol, Span 60, Tween 60, propylene glycol, mineral oil, and water administered qd for 5 days measured on day 4; assay type: functional
Trichophyton tonsurans = assay: Antifungal activity against Trichophyton tonsurans assessed as growth inhibition by agar dilution method; assay type: functional
Candida albicans [34] = assay: Antifungal activity against Candida albicans infected in mouse assessed as noninfected animals at 1% formulation in neat PEG 400 solution administered vaginally bid for 4 days measured 6 hrs post last dose relative to placebo; assay type: functional
Saccharomyces cerevisiae [35] = assay: Mutagenic activity in Saccharomyces cerevisiae D4 at 0.1 ug/plate by Ames assay in presence of rat liver microsomal enzyme preparation; assay type: toxicity, organism-based; conditions: microsomes
Salmonella typhimurium [36] = assay: Toxicity in Salmonella typhimurium TA-1538 at 500 ug/plate; assay type: organism-based; conditions: salmonella enterica subsp. enterica serovar typhimurium
[37] = Acute toxicity in ip dosed rat; assay type: organism-based; conditions: in vivo
Enterococcus faecalis = assay: Antibacterial activity against Streptococcus faecalis No. 8043-2 assessed as growth inhibition by broth microdilution method; assay type: functional
[38] = tested on: Trichophyton mentagrophytes; assay: Antifungal activity against Trichophyton mentagrophytes infected in guinea pig assessed as noninfected animals at 0.5% formulation in steryl alcohol, cetyl alcohol, Span 60, Tween 60, propylene glycol, mineral oil, and water administered qd for 5 days measured on day 14; assay type: functional
Salmonella typhimurium [39] = assay: Mutagenic activity in Salmonella typhimurium TA-1537 at 0.1 to 100 ug/plate by Ames assay; assay type: toxicity, organism-based; conditions: salmonella enterica subsp. enterica serovar typhimurium
Nannizzia gypsea = assay: Antifungal activity against Microsporum gypseum assessed as growth inhibition by agar dilution method; assay type: functional
Microsporum canis = assay: Antifungal activity against Microsporum canis assessed as growth inhibition by agar dilution method; assay type: functional
Salmonella typhimurium [40] = assay: Mutagenic activity in Salmonella typhimurium TA-100 at 0.1 to 100 ug/plate by Ames assay; assay type: toxicity, organism-based; conditions: salmonella enterica subsp. enterica serovar typhimurium
[41] = Acute toxicity in po dosed male rat; assay type: organism-based; conditions: in vivo
Epidermophyton floccosum = assay: Antifungal activity against Epidermophyton floccosum assessed as growth inhibition by agar dilution method; assay type: functional
Candida albicans [42] = assay: Antifungal activity against Candida albicans ATCC 14053 assessed as growth inhibition by broth dilution method; assay type: functional
[43] = Antifungal activity against Trichophyton concentricum assessed as growth inhibition by agar dilution method; assay type: functional
Salmonella typhimurium [44] = assay: Mutagenic activity in Salmonella typhimurium TA-1535 at 0.1 to 100 ug/plate by Ames assay; assay type: toxicity, organism-based; conditions: salmonella enterica subsp. enterica serovar typhimurium
Staphylococcus aureus [45] = assay: Antibacterial activity against Staphylococcus aureus No. 6538 P assessed as growth inhibition by broth microdilution method; assay type: functional
Candida albicans [46] = assay: Antifungal activity against mixed infection of Candida albicans infected in mouse assessed as noninfected animals at 1% formulation in modified PEG 400 solution administered vaginally bid for 4 days measured on day 7 relative to placebo; assay type: functional
Salmonella typhimurium [47] = assay: Mutagenic activity in Salmonella typhimurium TA-100 at 0.1 to 100 ug/plate by Ames assay in presence of rat liver microsomal enzyme preparation; assay type: toxicity, organism-based; conditions: salmonella enterica subsp. enterica serovar typhimurium, microsomes
Saccharomyces cerevisiae [48] = assay: Mutagenic activity in Saccharomyces cerevisiae D4 at 0.1 ug/plate by Ames assay; assay type: organism-based
[49] = Acute toxicity in ip dosed mouse; assay type: organism-based; conditions: in vivo
[50] = Acute toxicity in po dosed female rat; assay type: organism-based; conditions: in vivo

Clc1ccc(CCC(Cn2ccnc2)Sc2c(Cl)cccc2Cl)cc1.O=[N+]([O-])O (stereo not drawn) [BUTOCONAZOLE NITRATE]
Activity [1]: 90% | Activity (Salmonella typhimurium [2]): Non-toxic | Activity (Candida albicans [3]): Active | Activity (Candida albicans [4]): 75% | Activity (Candida albicans [5]): 63% | Activity (Candida albicans [6]): 84% | Activity (Salmonella typhimurium [7]): Toxic | GI (Cryptococcus neoformans): <=1 ug ml-1 | Activity (Salmonella typhimurium [8]): Toxic | Activity (Salmonella typhimurium [9]): Non-toxic | Activity (Candida albicans [10]): 60% | Activity (Candida albicans [11]): 95% | Activity (Candida albicans [12]): 65% | Activity (Salmonella typhimurium [13]): Non-toxic | GI [14]: 1 µg/mL | Activity (Salmonella typhimurium [15]): Non-toxic | Activity (Candida albicans [16]): 60% | Activity (Saccharomyces cerevisiae [17]): Toxic | Activity (Salmonella typhimurium [18]): Non-toxic | LD50 [19]: > 3200 mg/kg | Activity (Candida albicans [20]): 85% | GI (Streptococcus pyogenes): 0.0016 µg/mL | Activity (Candida albicans [21]): 80% | GI (Staphylococcus aureus [22]): 12.5 µg/mL | Activity (Candida albicans [23]): 75% | GI (Trichophyton rubrum): 0.05 µg/mL | Activity (Salmonella typhimurium [24]): Toxic | Activity (Candida albicans [25]): 75% | Activity (Candida albicans [26]): 85% | Activity (Salmonella typhimurium [27]): Toxic | GI (Candida albicans [28]): 30 µg/mL | Activity (Candida albicans [29]): 40% | Activity (Candida albicans [30]): 35% | Activity (Salmonella typhimurium [31]): Non-toxic | Activity (Candida albicans [32]): 83% | Activity [33]: 60% | GI (Trichophyton tonsurans): 5 µg/mL | Activity (Candida albicans [34]): 90% | Activity (Saccharomyces cerevisiae [35]): Non-toxic | Activity (Salmonella typhimurium [36]): Toxic | LD50 [37]: 940 mg/kg | GI (Enterococcus faecalis): 3.12 µg/mL | Activity [38]: 40% | Activity (Salmonella typhimurium [39]): Non-toxic | GI (Nannizzia gypsea): 0.05 µg/mL | GI (Microsporum canis): 0.1 µg/mL | Activity (Salmonella typhimurium [40]): Non-toxic | LD50 [41]: > 3200 mg/kg | GI (Epidermophyton floccosum): 5 µg/mL | GI (Candida albicans [42]): 10 µg/mL | GI [43]: 0.05 µg/mL | Activity (Salmonella typhimurium [44]): Non-toxic | GI (Staphylococcus aureus [45]): 6.25 µg/mL | Activity (Candida albicans [46]): 55% | Activity (Salmonella typhimurium [47]): Non-toxic | Activity (Saccharomyces cerevisiae [48]): Non-toxic | LD50 [49]: > 1600 mg/kg | LD50 [50]: 1720 mg/kg
